We go through one compound from publication PMC3585965 (Drugs in R&D, 2012).

For data set [1] the following is noted: cited from earlier work.
Data set [2] can be described thus: Study 2: pharmacokinetic drug-drug interaction GLPG0259 / methotrexate. In kind it is in vivo, human. Conditions: methotrexate 7.5 mg.

In the case of `CN(Cc1cnc2nc(N)nc(N)c2n1)c1ccc(C(=O)N[C@@H](CCC(=O)O)C(=O)O)cc1` [methotrexate], in data set [1], the “t1/2,λz, range of boundary values reported in the literature” value is 6 to 69 h. Besides, in data set [2] (day 14 (GLPG0259 50 mg) vs day -7), the “Cmax point estimate, with vs without GLPG0259” value was 89.63%. In data set [2] (day 14 vs day -7), the “AUC∞ point estimate, with vs without GLPG0259” value was 118.22% and the “t1/2,λz point estimate, with vs without GLPG0259” value is 110.64%.
